Experiments:
Assay in all cases: relative viability (nuclei count vs DMSO), 5 days (fraction); higher = more cells survive
Entinostat + Crizotinib = compound: Nc1ccccc1NC(=O)c1ccc(CNC(=O)OCc2cccnc2)cc1 [Entinostat] + C[C@@H](Oc1cc(-c2cnn(C3CCNCC3)c2)cnc1N)c1c(Cl)ccc(F)c1Cl [Crizotinib] (partner 1 µM)
In short: (§1)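 Dosing by pin tool came one day after lung cancer cell lines were seeded in 1536-well plates, using either one drug or a fixed anchor-drug dose plus five library-drug doses (not always all listed) in √10 steps. After 5 days, nuclei were counted on 4× images. Relative viability is treated-well nuclei count divided by vehicle-well nuclei count, and values are medians of duplicate plates.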

Entinostat + Vorinostat = compound: Nc1ccccc1NC(=O)c1ccc(CNC(=O)OCc2cccnc2)cc1 [Entinostat] + O=C(CCCCCCC(=O)Nc1ccccc1)NO [Vorinostat] (partner 1 µM)
In short: as §1

SGI-1776 + Tozasertib = compound: CN1CCC(CNc2ccc3ncc(-c4cccc(OC(F)(F)F)c4)n3n2)CC1 [SGI-1776] + Cc1cc(Nc2cc(N3CCN(C)CC3)nc(Sc3ccc(NC(=O)C4CC4)cc3)n2)n[nH]1 [Tozasertib] (partner 0.1 µM)
In short: as §1

[1] = compound: C1COCCN1C2=NC(=NC3=C2OC4=C3C=CC=N4)C5=CC(=CC=C5)NC(=O)C6=CN=C(C=C6)N + COc1cccc2cc(-c3nc([C@H]4CC[C@H](C(=O)O)CC4)n4ncnc(N)c34)[nH]c12 [OSI-027] (partner 0.5 µM)
In short: as §1

Row | Cell Line | relative viability (Entinostat + Crizotinib; first compound 0.02 µM) | relative viability (Entinostat + Crizotinib; first compound 0.06325 µM) | relative viability (Entinostat + Crizotinib; first compound 0.2 µM) | relative viability (Entinostat + Crizotinib; first compound 0.6325 µM) | relative viability (Entinostat + Crizotinib; first compound 2 µM) | relative viability (Entinostat + Vorinostat; first compound 0.02 µM) | relative viability (Entinostat + Vorinostat; first compound 0.06325 µM) | relative viability (Entinostat + Vorinostat; first compound 0.2 µM) | relative viability (Entinostat + Vorinostat; first compound 0.6325 µM) | relative viability (Entinostat + Vorinostat; first compound 2 µM) | relative viability (SGI-1776 + Tozasertib; first compound 0.08 µM) | relative viability (SGI-1776 + Tozasertib; first compound 0.8 µM) | relative viability (SGI-1776 + Tozasertib; first compound 2.53 µM) | relative viability (SGI-1776 + Tozasertib; first compound 8 µM) | relative viability ([1]; first compound 0.02 µM) | relative viability ([1]; first compound 0.06325 µM) | relative viability ([1]; first compound 0.2 µM) | relative viability ([1]; first compound 0.6325 µM) | relative viability ([1]; first compound 2 µM)
1 | LOU-NH91 | 0.705 | 0.754 | 0.757 | 0.742 | 0.678 | 0.971 | 0.909 | 0.872 | 0.718 | 0.56 | 0.711 | 0.594 | 0.459 | 0.341 | 0.699 | 0.686 | 0.739 | 0.68 | 0.657
2 | NCI-H2170 | 1.17 | 1.06 | 1.02 | 0.704 | 0.491 | 0.803 | 0.72 | 0.683 | 0.476 | 0.265 | 0.708 | 0.692 | 0.452 | 0.181 | 0.796 | 0.76 | 0.651 | 0.786 | 0.596
3 | NCI-H322M | 1.03 | 0.961 | 0.98 | 0.809 | 0.651 | 0.967 | 0.975 | 0.981 | 0.876 | 0.808 | 0.551 | 0.483 | 0.461 | 0.394 | 0.526 | 0.523 | 0.544 | 0.49 | 0.416
4 | PC-3 [JPC-3] | 0.965 | 1.01 | 0.79 | 0.658 | 0.44 | 1.15 | 0.911 | 0.597 | 0.525 | 0.36 | 0.911 | 0.9 | 0.863 | 0.544 | 0.849 | 0.839 | 0.697 | 0.704 | 0.54
5 | EPLC-272H | 0.924 | 0.872 | 0.933 | 0.61 | 0.322 | 0.483 | 0.397 | 0.33 | 0.236 | 0.139 | 0.326 | 0.194 | 0.194 | 0.175 | 0.311 | 0.305 | 0.289 | 0.247 | 0.328
6 | A-427 | 0.808 | 1.06 | 0.864 | 0.665 | 0.545 | 0.87 | 0.875 | 0.864 | 0.781 | 0.617 | 0.19 | 0.212 | 0.141 | 0.158 | 0.407 | 0.416 | 0.469 | 0.399 | 0.394

From the supplement of paper PMC10307832
